Values quoted from earlier work as cited in US20090196940A1, “COMPOSITIONS AND METHODS FOR SUPPORTING HEAT SHOCK FUNCTION” (priority 2007, published 2009).

Tests used:
[1] = test system: cultured mouse skeletal cells (HSP72)
HSP70 = conditions: mice, administration of schisandrin B
[2] = test system: heat shock proteins / HSF1; conditions: in vitro, treated cells

Geranylgeranylacetone
differentiation of myoblasts into myotubules [1]: facilitate the differentiation of myoblasts into myotubules | expression of HSP72 [1]: up-regulated the expression of HSP72 | muscular protein content [1]: increased muscular protein content in a dose-dependent manner

COc1cc2c(c(OC)c1OC)-c1c(cc3c(c1OC)OCO3)CC(C)C(C)C2 (stereo not drawn) [schisandrin B, Schisandrin B]
production of HSP70 (HSP70): increase the production of HSP70

C[C@@]12C[C@@]3(O)O[C@@H](O1)[C@]1(COC(=O)c4ccccc4)[C@H]3C[C@@]12O[C@@H]1O[C@H](CO)[C@@H](O)[C@H](O)[C@H]1O [paeoniflorin, Paeoniflorin]
levels of expression of heat shock proteins [2]: enhanced levels of expression of heat shock proteins | phosphorylation of HSF1 [2]: resulted in phosphorylation of HSF1
